Experimental data taken from patent publication US20090099123A1, “Antisense microRNA and uses therefor” (priority 2007, published 2009).

Tests used:
[1] = system: prostate and pancreatic tumors and cells; settings: cited from earlier work
miR-27a [2] = settings: these and other cancer cells (refs 23, 42, 43); cited from earlier work
Sp3 gene promoter = experiment: Sp3 promoter construct luciferase activity in RKO cells; type: cell-based
Protocol: (§1) RKO and SW480 colon cancer cells (2×10^4 per well) were plated in 12-well plates and allowed to attach for 24 hr. The medium was then changed to DMEM/Ham's F-12 medium containing 2.5% charcoal-stripped FBS, and either vehicle (DMSO) or different concentrations of the compound were added. Fresh medium and compounds were added every 48 hr, and cells were then trypsinized and counted after 48 and 96 hr using a Coulter Z1 cell counter. Transfection experiments in RKO and SW480 cells used 0.4 μg of reporter gene constructs and 0.04 μg of β-Gal and LipofectAMINE 2000 reagent (Invitrogen). Results of cell proliferation and transfection studies are expressed as means±S.E. for at least three replicate determinations for each treatment group. Western blots were determined with whole cell lysates essentially.

RKO and SW480 cells [3] = experiment: Induction of apoptosis / PARP cleavage in colon cancer cells (Western blot); type: cell-based
Protocol: (§2) FIG. 8A: Decreased cell survival in RKO cells. […] Cell survival is expressed as the percentage of β-CDODA-Me-treated cells remaining compared to DMSO (set at 100%).
as §1

RKO and SW480 cells [4] = experiment: FACS cell cycle analysis in colon cancer cells; type: cell-based
Protocol: Effects of β-CDODA-Me. SW480 (FIG. 12A) and RKO (FIG. 12B) cells were treated for 24 hr with DMSO(O), 2.5 and 5.0 μM β-CDODA-Me, and analyzed by FACS analysis. FIG. 12C: iSp modulates Sp protein expression and the cell cycle in SW480 and RKO cells. Cells were transfected with iSp, a combination of small inhibitory RNAs for Sp1, Sp3 and Sp4 or a non-specific oligonucleotide (iLamin), and analyzed for Sp proteins by Western blots (to confirm Sp knockdown) and FACS analysis. FIG. 12D: as-miR-27a modulates the cell cycle. SW480 and RKO cells were transfected with different amounts of as-miR-27a and, after 48 hr, analyzed by FACS. All experiments in FIGS. 12A-12D were repeated three times, and results are expressed as means±SE. Significant (p<0.05) changes compared to untreated (0) or iLamin-treated cells are indicated by asterisks.
RKO and SW480 cells were treated with either the vehicle (DMSO) or the compound for 24 hr or with as-miR27a. Cells were trypsinized, centrifuged, and resuspended in staining solution containing 50 μg/mL propidium iodide, 4 mmol/L sodium citrate and 30 units/mL RNase. After incubation at room temperature for 1 hr, cells were analysed on a FACS Vantage SE DiVa made by Becton Dickinson (BD), using BD FACSDiva Software V4.1.1. Propidium iodide (PI) fluorescence was collected through a 610SP bandpass filter, and list mode data were acquired on a minimum of 50,000 single cells defined by a dot plot of PI width vs. PI area. Data analysis was performed in BD FACSDiva Software V4.1.1 using PI width vs. PI area to exclude cell aggregates.

[5] = system: RKO and SW480 colon cancer cells; experiment: Cell proliferation assay in colon cancer cells; type: cell-based
Protocol: as §2, §1

[6] = system: Sp1, Sp3, Sp4, VEGF, VEGFR1 and survivin; experiment: Sp and Sp-dependent mRNA and proteins in colon cancer cells (semi-quantitative RT-PCR, Western blot); type: cell-based
Source text: (§3) ID NO: 8), ZBTB10 (sense [NT] ID NO: 9); antisense [NT] ID NO: 10), VEGF (sense [NT] ID NO: 11); antisense [NT] ID NO: 12), VEGFR1 (sense [NT] ID NO: 13); antisense [NT] ID NO: 14), Survivin (sense [NT] ID NO: 15); antisense [NT] ID NO: 16) and GAPDH (sense [NT] ID NO: 17); antisense [NT] ID NO: 18).

Myt-1, Wee-1 and cdc2 = experiment: Myt-1 and Wee-1 expression and cdc2 phosphorylation in colon cancer cells; type: cell-based
Protocol: (§4) FIGS. 13A-13D show the in vitro and in vivo effects of β-CDODA-Me on G2/M arrest and inhibition of tumor growth. Effects of β-CDODA-Me (FIG. 13A, 13B) and as-miR-27a (FIG. 13C) on Myt-1 and cdc2 phosphorylation. Colon cancer cells were treated with different amounts of β-CDODA-Me or as-miR-27a for the indicated times, and Myt-1 expression and cdc2 phosphorylation were determined by real time PCR or Western blots, respectively. […] FIGS. 13D-13F: β-CDODA-Me inhibit tumor growth (volume) (FIG. 13D), weight (FIG. 13E) and miR-27a expression (FIG. 13F) in a mouse xenograft model. Nude mice bearing RKO cells as xenografts were treated with corn oil (solvent control) or β-CDODA-Me (15 mg/kg/d), and tumor volumes, tumor weights, and miR-27a expression were determined.
(§5) cDNA was prepared from the RKO and SW480, cell lines using Reverse Transcription System (Promega). Each PCR was carried out in triplicate in a 20-μl volume using SYBR Green Mastermix (Applied Biosystems, Foster City, Calif.) for 15 min at 95° C. for initial denaturing, followed by 40 cycles of 95° C. for 30 s and 60° C. for 1 min in the Applied Biosystems 7900HT Fast Real-time PCR System. The ABI Dissociation Curves software was used following a brief thermal protocol (95° C. for 15 s and 60° C. for 15 s, followed by a slow ramp to 95° C.) to control for multiple species in each PCR amplification. Values for each gene were normalized to expression levels of TATA-binding protein. The primers used for real-time PCR were Myt-1 (sense 5′-CCTTCCAAGAGTAGCTCCAATTC-3′ (SEQ ID NO: 19); antisense 5′-GCC GGT AGC TCC CAT ATG G-3′) (SEQ ID NO: 20) and TATA-binding protein (sense 5′-TGC ACA GGA GCC AAG AGT GM-3′ (SEQ ID NO: 21); antisense 5′-CACATCACAGCTCCCCACCA-3′) (SEQ ID NO: 22). miRNA was extracted using the mirVana miRNA extraction kit (Applied Biosystems). Quantification of miRNA (RNU6B and miRNA-27a) was done using the Taqman miRNA kit (Applied Biosystems) according to the manufacturer's protocol with real-time PCR. U6 small nuclear RNA was used as a control to determine relative miRNA expression.

Sp1 gene promoter = experiment: Sp1 promoter construct luciferase activity in RKO cells; type: cell-based
Protocol: as §1

miR-27a [7] = experiment: miR-27a by quantitative real time PCR in colon cancer cells; type: cell-based; settings: RKO and SW480 cells, 18 hr
Protocol: as §5

RKO cells as xenografts = experiment: Xenograft study in athymic nude mice; type: in vivo
Protocol: as §4
Mice were used in accordance with institutional guidelines when they were 8-12 wk old. To produce tumors, RKO cells were harvested from subconfluent cultures by a brief exposure to 0.25% trypsin and 0.02% EDTA and only suspensions consisting of single cells with >90% viability were used for the injections. A xenograft was established by s.c. injection of the cells (5×10^6) into the flanks of individual mice and, after 6 days, mice were randomized into two groups of 5 mice per group and dosed by oral gavage in corn oil or 15 mg/kg/d B-CDODA-Me 5 days a week for 22 days. The mice were weighed, and tumor size was measured every third day with calipers to permit calculation of tumor volumes: V=LW^2/2, where L and W were length and width, respectively. Final tumors weights were determined at the end of the dosing regimen. Tumor tissues and selected body organs (liver and kidney) were either stored in RNAlater solution (per manufacture's recommendations) for later microRNA analysis, snap frozen and stored at −80° C., or fixed in 10% formalin and embedded in paraffin.

ZBTB10 = ZBTB10 by semi-quantitative RT-PCR in colon cancer cells; type: cell-based; settings: RKO or SW480 cells, 18 hr
Source text: as §3

[8] = 15 mg/kg/d oral gavage, 5 days a week for 22 days, vs corn oil

For `Cc1c(Cl)cccc1Nc1ccccc1C(=O)O` [tolfenamic acid], the “growth of prostate and pancreatic tumors and cells” value [1] is given as “inhibit growth” and the “levels of miR-27a RNA” value (miR-27a [2]) is given as “decrease”.
In the case of `COC(=O)[C@@]1(C)CC[C@]2(C)CC[C@]3(C)C(=CC(=O)[C@@H]4[C@@]5(C)C=C(C#N)C(=O)C(C)(C)[C@@H]5CC[C@]43C)[C@@H]2C1` [β-CDODA-Me, methyl-2-cyano-3,11-dioxo-18β-olean-1,12-dien-30-oate], the “luciferase activity, Sp3 promoter constructs (pSp3For5, pSp3For2)” value (Sp3 gene promoter) is reported as “decreased luciferase activity”, the apoptosis (RKO and SW480 cells [3]; RKO and SW480 cells) is reported as “induced apoptosis” and the “caspase-dependent PARP cleavage” value (RKO and SW480 cells [3]; colon cancer cells (β-CDODA-Me: RKO; ZBTB10: SW480 and RKO)) is reported as “induced”. The cell cycle arrest (RKO and SW480 cells [4]) was “induced a G2/M arrest”, the “percentage of cells in S phase” value (RKO and SW480 cells [4]; 24 hr, 2.5 and 5.0 μM respectively) was “increased and then decreased” and the “cells in G2/M” value (RKO and SW480 cells [4]; 24 hr, 2.5 and 5.0 μM, vs DMSO) was “increase”. The “percentage of cells in G0/G1” value (RKO and SW480 cells [4]; 24 hr, 2.5 and 5.0 μM, vs DMSO) was “concentration-dependent decrease”, the “levels of miR-27a RNA” value (miR-27a [2]) was “decrease” and the proliferation ([5]; 0.5-5 μM, 4 days) was “decreased proliferation”. The “proliferation and apoptosis responses after cotreatment with T007” value ([5]; T007 10 μM) was “not affected”, the “Sp1, Sp3 and Sp4 mRNA levels” value ([6]; 24 hr, semi-quantitative RT-PCR) was “decreased expression” and the “expression of Sp-dependent proteins survivin, VEGFR1 (Flt-1) and VEGF” value ([6]; Western blot) was “decreased expression”. The cdc2 phosphorylation (Myt-1, Wee-1 and cdc2; RKO and SW480 cells, Western blot) was “time-dependent induction”, the “Myt-1 mRNA expression” value (Myt-1, Wee-1 and cdc2; RKO and SW480 cells, real time PCR) was “induced” and the Wee-1 expression (Myt-1, Wee-1 and cdc2; SW480 or RKO cells) was “did not affect”. The “luciferase activity, Sp1 promoter constructs (pSp1For4, pSp1For2, pSp1For1)” value (Sp1 gene promoter) was “decreased luciferase activity”, the miR-27a (miR-27a [7]) was “decreased” and the “body or organ weight loss associated with toxic side effects” value (RKO cells as xenografts; 15 mg/kg/d) was “not accompanied by any body or organ weight loss”. The “miR-27a expression in tumors” value (RKO cells as xenografts; [8]) was “inhibited”, the “tumor growth (volume)” value (RKO cells as xenografts; [8]) was “inhibited” and the tumor weight (RKO cells as xenografts; [8]) was “inhibited”. For the same compound, the ZBTB10 levels (ZBTB10) was “induced”.
